# Measurements as given in patent US10294202B2, “Pyrrolidinones as herbicides” (FMC Corporation, priority 2013, dated 2019).
# Assays:
# corn = assay: Test A pre-/postemergence herbicide test; assay type: in vivo, Zea mays
# Outline: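 Planted in loam–sand blend; treated the same day preemergence by directed soil spray, while separately grown plants at one- to two-leaf stage got postemergence spray. Compared visually with untreated controls after approximately 10 days; 100 means complete control.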
# barnyardgrass = assay: Test B flooded paddy test; assay type: in vivo, Echinochloa crus-galli; details: 250 g ai/ha, Flood; scale of 0 to 100 where 0 is no effect and 100 is complete control
# Outline: (§1)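 Treatment was made at the 2-leaf stage by dosing the standing floodwater, kept 3 cm above soil level for the whole test. Greenhouse exposure lasted 13 to 15 days. Response is a visual percent rating relative to controls, where a dash indicates no test result.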
# soybean = assay: Test C pre-/postemergence herbicide test; assay type: in vivo, Glycine max
# Outline: (§2)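 Test compounds, formulated in a surfactant-containing non-phytotoxic solvent blend, are applied to seeded loam/sand soil (preemergence) and to young plants at the 1- to 4-leaf stage in peat-based medium (postemergence). Plants stay 13 to 15 days under greenhouse conditions, then are scored visually relative to controls, 0 = no effect, 100 = complete control.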
# ryegrass, Italian = assay: Test C pre-/postemergence herbicide test; assay type: in vivo, Lolium multiflorum
# Outline: as §2
# oilseed rape = assay: Test C pre-/postemergence herbicide test; assay type: in vivo, Brassica napus; details: Preemergence
# Outline: as §2
# crabgrass, large = assay: Test C pre-/postemergence herbicide test; assay type: in vivo, Digitaria sanguinalis
# Outline: as §2
# waterhemp = assay: Test C pre-/postemergence herbicide test; assay type: in vivo, Amaranthus rudis; details: Preemergence
# Outline: as §2
# rice = assay: Test B flooded paddy test; assay type: in vivo, Oryza sativa; details: 250 g ai/ha, Flood; scale of 0 to 100 where 0 is no effect and 100 is complete control
# Outline: as §1
# velvetleaf = assay: Test C pre-/postemergence herbicide test; assay type: in vivo, Abutilon theophrasti
# Outline: as §2
# ducksalad = assay: Test B flooded paddy test; assay type: in vivo, Heteranthera limosa; details: 250 g ai/ha, Flood; scale of 0 to 100 where 0 is no effect and 100 is complete control
# Outline: as §1
# sedge, umbrella = assay: Test B flooded paddy test; assay type: in vivo, Cyperus difformis; details: 250 g ai/ha, Flood; scale of 0 to 100 where 0 is no effect and 100 is complete control
# Outline: as §1
# blackgrass = assay: Test C pre-/postemergence herbicide test; assay type: in vivo, Alopecurus myosuroides
# Outline: as §2
# [1] = Postemergence, 125 g ai/ha, 0 to 100 scale, 0 no effect, 100 complete control
# [2] = Postemergence, 500 g ai/ha, 0 to 100 scale (0 no effect, 100 complete control)
# [3] = Preemergence, 125 g ai/ha, visual rating on 0 to 100 scale (0 no effect, 100 complete control)
# [4] = preemergence, 500 g ai/ha, 0 to 100 scale
# [5] = Preemergence, 31 g ai/ha, scale 0 to 100, 0 is no effect and 100 is complete control
# [6] = Preemergence, 62 g ai/ha, scale 0 to 100
# [7] = Preemergence, 125 g ai/ha, scale 0 to 100 (0 no effect, 100 complete control)
# [8] = 31 g ai/ha, scale 0 to 100, 0 is no effect and 100 is complete control
# [9] = 125 g ai/ha, scale 0 to 100 (0 no effect, 100 complete control)
# [10] = Postemergence, 1000 g ai/ha, 0 to 100 scale (0 no effect, 100 complete control)
# [11] = Preemergence, 1000 g ai/ha, visual rating on 0 to 100 scale (0 no effect, 100 complete control), approx. 10 days
# [12] = Preemergence, 31 g ai/ha, scale 0 to 100 (0 no effect, 100 complete control)
# [13] = Preemergence, 250 g ai/ha, scale 0 to 100 (0 no effect, 100 complete control)
# [14] = Postemergence, 31 g ai/ha, scale 0 (no effect) to 100 (complete control)
# [15] = Postemergence, 62 g ai/ha, scale 0 to 100 (0 no effect, 100 complete control)
# [16] = Postemergence, 125 g ai/ha, scale 0 to 100 (0 no effect, 100 complete control)
# [17] = Postemergence, 250 g ai/ha, scale 0 to 100 (0 no effect, 100 complete control)
smiles,measurement,setting,value
O=C1NCC(c2ccc(F)c(C(F)(F)F)c2)C1C(=O)Nc1ccccc1C(F)(F)F (racemic) [Compound 78],"Plant response rating, Corn",corn; [1],20
same,"Plant response rating, Corn",corn; [2],50
same,Corn plant response rating,corn; [3],0
same,"Plant response rating, Corn",corn; [4],0
same,"Plant response rating, Barnyardgrass",barnyardgrass,0
same,Soybean plant response rating,soybean; [5],0
same,"Plant response rating, Soybean",soybean; [6],0
same,"Plant response rating, Soybean",soybean; [7],0
same,"Plant response rating (scale of 0 to 100), Soybean","soybean; Preemergence, 250 g ai/ha",0
same,"Ryegrass, Italian plant response rating","ryegrass, Italian; [5]",0
same,"Plant response rating, Ryegrass, Italian","ryegrass, Italian; [6]",40
same,"Plant response rating, Ryegrass, Italian","ryegrass, Italian; [7]",40
same,"Plant response rating (scale of 0 to 100), Ryegrass, Italian","ryegrass, Italian; Preemergence, 250 g ai/ha",45
same,Oilseed Rape plant response rating,oilseed rape; [8],0
same,"Plant response rating, Oilseed Rape","oilseed rape; 62 g ai/ha, scale 0 to 100",10
same,"Plant response rating, Oilseed Rape",oilseed rape; [9],10
same,"Plant response rating (scale of 0 to 100), Oilseed Rape",oilseed rape; 250 g ai/ha,75
same,"Crabgrass, Large plant response rating","crabgrass, large; [5]",95
same,"Plant response rating, Crabgrass, Large","crabgrass, large; [6]",98
same,"Plant response rating, Crabgrass, Large","crabgrass, large; [7]",98
same,"Plant response rating (scale of 0 to 100), Crabgrass, Large","crabgrass, large; Preemergence, 250 g ai/ha",98
same,Waterhemp plant response rating,waterhemp; [8],50
same,"Plant response rating, Waterhemp","waterhemp; 62 g ai/ha, scale 0 to 100",75
same,"Plant response rating, Waterhemp",waterhemp; [9],85
same,"Plant response rating (scale of 0 to 100), Waterhemp",waterhemp; 250 g ai/ha,85
same,"Plant response rating, Rice",rice,0
same,Velvetleaf plant response rating,velvetleaf; [5],15
same,"Plant response rating, Velvetleaf",velvetleaf; [6],15
same,"Plant response rating, Velvetleaf",velvetleaf; [7],20
same,"Plant response rating (scale of 0 to 100), Velvetleaf","velvetleaf; Preemergence, 250 g ai/ha",20
same,"Plant response rating, Ducksalad",ducksalad,85
same,"Plant response rating, Sedge, Umbrella","sedge, umbrella",0
same,Blackgrass plant response rating,blackgrass; [5],30
same,"Plant response rating, Blackgrass",blackgrass; [6],75
same,"Plant response rating, Blackgrass",blackgrass; [7],75
same,"Plant response rating (scale of 0 to 100), Blackgrass","blackgrass; Preemergence, 250 g ai/ha",85
O=C1NCC(c2cc(F)c(F)c(F)c2)C1C(=O)Nc1ccccc1C(F)(F)F (racemic) [Compound 33],"Plant response rating, Corn",corn; [10],40
same,"Plant response rating, Corn",corn; [11],0
same,"Plant response rating, Barnyardgrass",barnyardgrass,0
same,"Plant response rating, Soybean",soybean; [7],0
same,"Plant response rating, Ryegrass, Italian","ryegrass, Italian; [6]",0
same,"Plant response rating, Ryegrass, Italian","ryegrass, Italian; [7]",0
same,"Crabgrass, Large plant response rating","crabgrass, large; [12]",95
same,"Plant response rating, Crabgrass, Large","crabgrass, large; [6]",98
same,"Plant response rating, Crabgrass, Large","crabgrass, large; [7]",100
same,"Plant response rating, Crabgrass, Large","crabgrass, large; [13]",100
same,"Plant response rating, Rice",rice,0
same,"Plant response rating, Velvetleaf",velvetleaf; [6],10
same,"Plant response rating, Velvetleaf",velvetleaf; [7],10
same,"Plant response rating, Ducksalad",ducksalad,100
same,"Plant response rating, Sedge, Umbrella","sedge, umbrella",0
same,Blackgrass plant response rating,blackgrass; [12],0
same,"Plant response rating, Blackgrass",blackgrass; [6],0
same,"Plant response rating, Blackgrass",blackgrass; [7],0
same,"Plant response rating, Blackgrass",blackgrass; [13],5
O=C1NCC(c2cc(F)c(F)c(F)c2)C1C(=O)Nc1ccccc1F (racemic) [Compound 34],"Plant response rating, Corn",corn; [10],50
same,"Plant response rating, Corn",corn; [11],30
same,"Plant response rating, Barnyardgrass",barnyardgrass,0
same,"Plant response rating, Soybean",soybean; [14],0
same,"Plant response rating, Soybean",soybean; [15],0
same,"Plant response rating, Soybean",soybean; [16],5
same,"Plant response rating, Soybean",soybean; [17],10
same,"Plant response rating, Soybean",soybean; [6],0
same,"Plant response rating, Soybean",soybean; [7],5
same,"Plant response rating, Ryegrass, Italian","ryegrass, Italian; [14]",0
same,"Plant response rating, Ryegrass, Italian","ryegrass, Italian; [15]",0
same,"Plant response rating, Ryegrass, Italian","ryegrass, Italian; [16]",0
same,"Plant response rating, Ryegrass, Italian","ryegrass, Italian; [17]",0
same,"Plant response rating, Ryegrass, Italian","ryegrass, Italian; [6]",0
same,"Plant response rating, Ryegrass, Italian","ryegrass, Italian; [7]",20
same,"Plant response rating, Crabgrass, Large","crabgrass, large; [14]",0
same,"Plant response rating, Crabgrass, Large","crabgrass, large; [15]",30
same,"Plant response rating, Crabgrass, Large","crabgrass, large; [16]",40
same,"Plant response rating, Crabgrass, Large","crabgrass, large; [17]",60
same,"Crabgrass, Large plant response rating","crabgrass, large; [12]",95
same,"Plant response rating, Crabgrass, Large","crabgrass, large; [6]",98
same,"Plant response rating, Crabgrass, Large","crabgrass, large; [7]",100
same,"Plant response rating, Crabgrass, Large","crabgrass, large; [13]",100
same,"Plant response rating, Rice",rice,0
same,"Plant response rating, Velvetleaf",velvetleaf; [14],5
same,"Plant response rating, Velvetleaf",velvetleaf; [15],5
same,"Plant response rating, Velvetleaf",velvetleaf; [16],5
same,"Plant response rating, Velvetleaf",velvetleaf; [17],5
same,"Plant response rating, Velvetleaf",velvetleaf; [6],0
same,"Plant response rating, Velvetleaf",velvetleaf; [7],0
same,"Plant response rating, Ducksalad",ducksalad,95
same,"Plant response rating, Sedge, Umbrella","sedge, umbrella",0
same,"Plant response rating, Blackgrass",blackgrass; [14],0
same,"Plant response rating, Blackgrass",blackgrass; [15],0
same,"Plant response rating, Blackgrass",blackgrass; [16],0
same,"Plant response rating, Blackgrass",blackgrass; [17],0
same,Blackgrass plant response rating,blackgrass; [12],0
same,"Plant response rating, Blackgrass",blackgrass; [6],0
same,"Plant response rating, Blackgrass",blackgrass; [7],10
same,"Plant response rating, Blackgrass",blackgrass; [13],45
O=C1NCC(c2ccc3c(c2)OC(F)(F)O3)C1C(=O)Nc1cccc(F)c1F (stereo not drawn) [Compound 62],"Plant response rating, Corn",corn; [1],40
same,"Plant response rating, Corn",corn; [2],70
same,Corn plant response rating,corn; [3],0
same,"Plant response rating, Corn",corn; [4],0
same,"Plant response rating, Barnyardgrass",barnyardgrass,20
same,"Plant response rating, Soybean",soybean; [6],30
same,"Plant response rating, Soybean",soybean; [7],35
same,"Plant response rating, Ryegrass, Italian","ryegrass, Italian; [6]",0
same,"Plant response rating, Ryegrass, Italian","ryegrass, Italian; [7]",30
same,"Crabgrass, Large plant response rating","crabgrass, large; [12]",85
same,"Plant response rating, Crabgrass, Large","crabgrass, large; [6]",90
same,"Plant response rating, Crabgrass, Large","crabgrass, large; [7]",95
same,"Plant response rating, Crabgrass, Large","crabgrass, large; [13]",98
same,"Plant response rating, Rice",rice,0
same,"Plant response rating, Velvetleaf",velvetleaf; [6],20
same,"Plant response rating, Velvetleaf",velvetleaf; [7],25
same,"Plant response rating, Ducksalad",ducksalad,75
same,"Plant response rating, Sedge, Umbrella","sedge, umbrella",80
same,Blackgrass plant response rating,blackgrass; [12],0
same,"Plant response rating, Blackgrass",blackgrass; [6],45
same,"Plant response rating, Blackgrass",blackgrass; [7],80
same,"Plant response rating, Blackgrass",blackgrass; [13],80
